What all share (format): cell-based
One assay concerns the target T1, NK3 (Homo sapiens, UniProt P29371).
T1 sequence (P29371 1-465): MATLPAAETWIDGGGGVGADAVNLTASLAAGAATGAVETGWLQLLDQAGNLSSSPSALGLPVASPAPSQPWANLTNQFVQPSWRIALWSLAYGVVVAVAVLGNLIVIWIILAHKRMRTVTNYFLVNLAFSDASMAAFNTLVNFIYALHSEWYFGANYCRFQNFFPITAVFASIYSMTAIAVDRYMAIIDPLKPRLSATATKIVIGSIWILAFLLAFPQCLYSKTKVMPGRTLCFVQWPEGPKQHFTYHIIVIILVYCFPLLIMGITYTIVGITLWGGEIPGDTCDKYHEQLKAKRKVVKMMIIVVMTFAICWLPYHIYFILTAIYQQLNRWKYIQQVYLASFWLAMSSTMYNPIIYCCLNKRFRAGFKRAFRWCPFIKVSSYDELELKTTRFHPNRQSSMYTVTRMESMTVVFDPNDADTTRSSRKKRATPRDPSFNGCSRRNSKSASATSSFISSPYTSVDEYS
The assay can be described thus: Signal transduction (ST), intracellular Ca++ (FLIPR), NK3. The conditions noted are these: for IC50: read-out: pIC50 NK3 (converted).

A further assay concerns the target T2, NK2 (Homo sapiens, UniProt P21452).
T2 sequence (P21452 1-398): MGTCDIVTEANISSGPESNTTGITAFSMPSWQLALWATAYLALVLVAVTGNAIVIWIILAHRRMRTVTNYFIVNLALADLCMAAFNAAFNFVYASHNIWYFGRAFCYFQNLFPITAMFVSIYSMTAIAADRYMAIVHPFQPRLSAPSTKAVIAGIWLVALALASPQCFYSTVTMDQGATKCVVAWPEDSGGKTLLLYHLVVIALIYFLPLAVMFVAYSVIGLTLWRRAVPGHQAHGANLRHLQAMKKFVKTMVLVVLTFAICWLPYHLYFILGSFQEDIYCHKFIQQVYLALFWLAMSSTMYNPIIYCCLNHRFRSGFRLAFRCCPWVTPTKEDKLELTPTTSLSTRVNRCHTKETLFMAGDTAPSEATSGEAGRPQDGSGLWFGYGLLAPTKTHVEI
The assay can be described thus: Signal transduction (ST), intracellular Ca++ (FLIPR), NK2. The note with it: for IC50: read-out: pIC50 NK2 (converted). The procedure:
[The source words this procedure for another target and reports this target under the same test.] This test evaluates in vitro functional NK1 antagonistic activity. For the measurements of intracellular Ca^++ concentrations the cells were grown on 96-well (black wall/transparent bottom) plates from Costar for 2 days until they reached confluence. The cells were loaded with 2 μM Fluo3 in DMEM containing 0.1% BSA and 2.5 mM probenecid for 1 h at 37° C. […] The cells were preincubated with a concentration range of antagonists for 20 min at RT and Ca^++-signals after addition of the agonists were measured in a Fluorescence Image Plate Reader (FLIPR from Molecular Devices, Crawley, England). The peak of the Ca^++-transient was considered as the relevant signal and the mean values of corresponding wells were analysed as described below.
The sigmoidal dose response curves were analysed by computerised curve-fitting, using the GraphPad Program. […] For antagonist responses the IC50-value was calculated using non-linear regression.

The next assay has as its target NK1 (Homo sapiens, UniProt P25103). The assay can be described thus: Signal transduction (ST), intracellular Ca++ (FLIPR), NK1 antagonism. The conditions noted are these: for IC50: read-out: pIC50 NK1 (converted). The procedure, abridged:
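Confluent cells were loaded with 2 μM Fluo3 with probenecid for 1 h at 37°C, then preincubated with antagonist concentration ranges for 20 min at RT before agonist addition. Peak FLIPR calcium transient was taken as signal; IC50 from non-linear regression of sigmoidal curves.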

SMILES strings stand for the structures.

NK1, sequence (P25103 whole entry): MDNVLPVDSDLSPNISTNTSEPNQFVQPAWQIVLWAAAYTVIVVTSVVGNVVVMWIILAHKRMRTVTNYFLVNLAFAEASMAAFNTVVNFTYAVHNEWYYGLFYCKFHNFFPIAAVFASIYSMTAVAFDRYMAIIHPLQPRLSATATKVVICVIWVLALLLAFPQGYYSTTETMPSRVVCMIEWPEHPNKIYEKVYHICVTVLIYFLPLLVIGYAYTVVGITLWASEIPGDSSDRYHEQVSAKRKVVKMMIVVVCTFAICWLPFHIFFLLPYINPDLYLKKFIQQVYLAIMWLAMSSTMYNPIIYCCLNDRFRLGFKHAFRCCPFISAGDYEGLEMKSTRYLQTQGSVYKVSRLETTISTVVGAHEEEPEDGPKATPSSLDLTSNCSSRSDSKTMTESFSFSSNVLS

On to `O=C(c1cc(C(F)(F)F)cc(C(F)(F)F)c1)N1CC[C@H](N2CCN(C3CCCN(S(=O)(=O)c4cccs4)C3)CC2)C[C@H]1Cc1ccccc1` (stereo partly drawn) [Compound 25], for which, on NK3, the “pIC50 NK3” value was 7.1. Further, the “pIC50 NK2” value on NK2 worked out at 6.4. In addition, on NK1, the “pIC50 NK1” value is 7.8.
On to `COc1ccc(S(=O)(=O)N2CCCC(N3CCN([C@H]4CCN(C(=O)c5cc(C(F)(F)F)cc(C(F)(F)F)c5)[C@H](Cc5ccccc5)C4)CC3)C2)cc1` (stereo partly drawn) [Compound 72], for which the IC50 is 1260 nM at NK3, 2000 nM on NK2 and 20 nM on NK1.
For the molecule `Cc1nnsc1C(=O)N1CCCC(N2CCN([C@H]3CCN(C(=O)c4cc(C(F)(F)F)cc(C(F)(F)F)c4)[C@H](Cc4ccccc4)C3)CC2)C1` (stereo partly drawn) [Compound 22], the IC50 at NK3 is 501 nM; at NK2 it was 2510 nM; on NK1, 10 nM.
Turning to `CC(C)(C)OC(=O)N1CCC[C@@H]1C(=O)N1CCCC(N2CCN([C@H]3CCN(C(=O)c4cc(C(F)(F)F)cc(C(F)(F)F)c4)[C@H](Cc4ccccc4)C3)CC2)C1` (stereo partly drawn) [Compound 53], the “pIC50 NK3” value against NK3 was determined as 7.3. For the same molecule, on NK2, the “pIC50 NK2” value came out at 5.7. Besides, the “pIC50 NK1” value at NK1 turned out to be 8.3.
`O=C(c1cc(C(F)(F)F)cc(C(F)(F)F)c1)N1CCC(N2CCN(C3CCCN(S(=O)(=O)Cc4ccccc4)C3)CC2)CC1Cc1ccccc1` (stereo not drawn) [Compound 49]: the IC50 on NK3 was 316 nM; on NK2 it was 631 nM; on NK1, 15.8 nM.
For `CC(C)NC(=O)N1CCCC(N2CCN(C3CCN(C(=O)c4cc(C(F)(F)F)cc(C(F)(F)F)c4)C(Cc4ccccc4)C3)CC2)C1` (stereo not drawn) [Compound 66], the results for the IC50 on NK3, at NK2 and on NK1 were 3160 nM, 3160 nM and 5.01 nM, respectively.
`O=C(Nc1ccc(Cl)cc1)N1CCCC(N2CCN([C@H]3CCN(C(=O)c4cc(C(F)(F)F)cc(C(F)(F)F)c4)[C@H](Cc4ccccc4)C3)CC2)C1` (stereo partly drawn) [Compound 74]: the “pIC50 NK3” value against NK3 was 5.5. The “pIC50 NK2” value on NK2 is on record as 5.4. Also, at NK1, the “pIC50 NK1” value was 8.0.
With `N#Cc1ccc(C(=O)N2CCCC(N3CCN([C@H]4CCN(C(=O)c5cc(C(F)(F)F)cc(C(F)(F)F)c5)[C@H](Cc5ccccc5)C4)CC3)C2)cc1` (stereo partly drawn) [Compound 62], the IC50 on NK3 is 3160 nM; on NK2 it was 3980 nM; at NK1, 10 nM.
Regarding `O=C(c1cc(C(F)(F)F)cc(C(F)(F)F)c1)N1CC[C@H](N2CCN(C3CCCN(S(=O)(=O)c4cccc(O)c4)C3)CC2)C[C@H]1Cc1ccccc1` (stereo partly drawn) [Compound 80], the IC50 was 501 nM on NK3, 794 nM on NK2 and 10 nM at NK1.
For the molecule `COc1ccccc1C(=O)N1CCCC(N2CCN([C@H]3CCN(C(=O)c4cc(C(F)(F)F)cc(C(F)(F)F)c4)[C@H](Cc4ccccc4)C3)CC2)C1` (stereo partly drawn) [Compound 47], the IC50 on NK3 was 501 nM; on NK2, 5010 nM; on NK1 it was 15.8 nM.
As for `O=C(c1cc(C(F)(F)F)cc(C(F)(F)F)c1)N1CC[C@H](N2CCN(C3CCCN(S(=O)(=O)c4ccc(CCO)s4)C3)CC2)C[C@H]1Cc1ccccc1` (stereo partly drawn) [Compound 86], the “pIC50 NK3” value against NK3 came to 6.3. The “pIC50 NK2” value at NK2 turned out to be 6.4. Moreover, the “pIC50 NK1” value against NK1 is 8.2.
As for `O=C(c1cc(C(F)(F)F)cc(C(F)(F)F)c1)N1CC[C@H](N2CCN(C3CCCN(S(=O)(=O)c4ccsc4)C3)CC2)C[C@H]1Cc1ccccc1` (stereo partly drawn) [Compound 29], the results for the IC50 at NK3, at NK2 and on NK1 were 316 nM, 1260 nM and 6.31 nM, respectively.
On the same counts, the results for `Cc1ccccc1S(=O)(=O)N1CCCC(N2CCN([C@H]3CCN(C(=O)c4cc(C(F)(F)F)cc(C(F)(F)F)c4)[C@H](Cc4ccccc4)C3)CC2)C1` (stereo partly drawn) [Compound 30] are 631 nM, 631 nM and 15.8 nM.
With `O=C(c1cc(C(F)(F)F)cc(C(F)(F)F)c1)N1CC[C@H](N2CCN(C3CCCN(C(CO)c4ccoc4)C3)CC2)C[C@H]1Cc1ccccc1` (stereo partly drawn) [Compound 79], the IC50 on NK3 is 1000 nM; on NK2, 1580 nM; on NK1, 12.6 nM.
In the case of `O=C(c1cc(C(F)(F)F)cc(C(F)(F)F)c1)N1CCC(N2CCN(C3CCCN(S(=O)(=O)c4cc(CCO)cs4)C3)CC2)CC1Cc1ccccc1` (stereo not drawn) [Compound 96], the results for the IC50 at NK3, on NK2 and at NK1 were 100 nM, 398 nM and 15.8 nM, respectively.
On to `O=C(c1cc(C(F)(F)F)cc(C(F)(F)F)c1)N1CC[C@H](N2CCN(C3CCCN(C(CO)c4ccccc4Cl)C3)CC2)C[C@H]1Cc1ccccc1` (stereo partly drawn) [Compound 89], for which the IC50 on NK3 was 7940 nM; on NK2, 5010 nM; on NK1, 63.1 nM.
For `O=C(c1cc(COCc2ccccc2)cs1)N1CCCC(N2CCN([C@H]3CCN(C(=O)c4cc(C(F)(F)F)cc(C(F)(F)F)c4)[C@H](Cc4ccccc4)C3)CC2)C1` (stereo partly drawn) [Compound 85], the values for the IC50 at NK3, on NK2 and at NK1 were 5010 nM, 3980 nM and 79.4 nM, respectively.
Take `O=C(OCc1ccccc1C(=O)N1CCCC(N2CCN([C@H]3CCN(C(=O)c4cc(C(F)(F)F)cc(C(F)(F)F)c4)[C@H](Cc4ccccc4)C3)CC2)C1)c1ccccc1` (stereo partly drawn) [Compound 82]: the IC50 is 7940 nM on NK3, 3160 nM on NK2 and 63.1 nM on NK1.
The like results for `COc1ccc(NC(=NC#N)N2CCCC(N3CCN([C@H]4CCN(C(=O)c5cc(C(F)(F)F)cc(C(F)(F)F)c5)[C@H](Cc5ccccc5)C4)CC3)C2)cc1` (stereo partly drawn) [Compound 94] were, in that order, 1000 nM, 3980 nM and 20 nM.
As to `O=C(c1cc(C(F)(F)F)cc(C(F)(F)F)c1)N1CC[C@H](N2CCN(C3CCCN(S(=O)(=O)c4ccc(CO)s4)C3)CC2)C[C@H]1Cc1ccccc1` (stereo partly drawn) [Compound 92], the IC50 was 158 nM at NK3, 501 nM at NK2 and 12.6 nM on NK1.
The like results for `O=C(c1cc(C(F)(F)F)cc(C(F)(F)F)c1)N1CC[C@H](N2CCN(C3CCCN(S(=O)(=O)c4c(Cl)nc5sccn45)C3)CC2)C[C@H]1Cc1ccccc1` (stereo partly drawn) [Compound 46] were, in that order, 794 nM, 501 nM and 15.8 nM.
Regarding `O=C(Nc1ccccc1F)N1CCCC(N2CCN([C@H]3CCN(C(=O)c4cc(C(F)(F)F)cc(C(F)(F)F)c4)[C@H](Cc4ccccc4)C3)CC2)C1` (stereo partly drawn) [Compound 65], the IC50 on NK3 was 6310 nM; on NK2, 1580 nM; on NK1, 10 nM.
For `O=C(c1cc(C(F)(F)F)cc(C(F)(F)F)c1)N1CCC(N2CCN(C3CCCN(S(=O)(=O)c4ccc(O)cc4)C3)CC2)CC1Cc1ccccc1` (stereo not drawn) [Compound 78], the IC50 at NK3 was 316 nM; on NK2 it was 794 nM; on NK1 it was 3.98 nM.
Regarding `Cc1ccccc1C(=O)N1CCCC(N2CCN([C@H]3CCN(C(=O)c4cc(C(F)(F)F)cc(C(F)(F)F)c4)[C@H](Cc4ccccc4)C3)CC2)C1` (stereo partly drawn) [Compound 11], the IC50 is 1000 nM on NK3, 3160 nM at NK2 and 20 nM at NK1.
Regarding `COc1ccc(S(=O)(=O)N2CCCC(N3CCN([C@H]4CCN(C(=O)c5cc(C(F)(F)F)cc(C(F)(F)F)c5)[C@H](Cc5ccccc5)C4)CC3)C2)s1` (stereo partly drawn) [Compound 95], the IC50 on NK3 was 1260 nM; at NK2 it was 3160 nM; at NK1 it was 31.6 nM.
Turning to `O=C(c1cc(C(F)(F)F)cc(C(F)(F)F)c1)N1CCC(N2CCN(C3CCCN(S(=O)(=O)c4cccs4)C3)CC2)CC1Cc1ccccc1` (stereo not drawn) [Compound 59], the IC50 on NK3 was 2000 nM; at NK2 it was 3160 nM; at NK1 it was 15.8 nM.

Source of the values: patent US7572786B2, “Substituted 1-piperidin-3-yl-4-piperidin-4-yl-piperazine derivatives and their use as neurokinin antagonists” (Janssen Pharmaceutica, N.V., priority 2002, dated 2009).
